Substitutions are numbered along the chain they refer to. One block for each molecule: values may come before it.
Legend:
Assay in all cases: whole-cell patch clamp, HEK293T cells expressing mutant
Format in all cases: cell-based
Details in all cases: for relative responsiveness: 100 µM agonist 2 s, relative to ATP (100%)
rP2X4R S212A mutant = molecular target: T1, rP2X4R S212A mutant (Rattus norvegicus, UniProt P51577, S212A)
T1 construct: expressed in transfected cells; host or cells: HEK293T
T1 sequence (P51577 1-388 S212A): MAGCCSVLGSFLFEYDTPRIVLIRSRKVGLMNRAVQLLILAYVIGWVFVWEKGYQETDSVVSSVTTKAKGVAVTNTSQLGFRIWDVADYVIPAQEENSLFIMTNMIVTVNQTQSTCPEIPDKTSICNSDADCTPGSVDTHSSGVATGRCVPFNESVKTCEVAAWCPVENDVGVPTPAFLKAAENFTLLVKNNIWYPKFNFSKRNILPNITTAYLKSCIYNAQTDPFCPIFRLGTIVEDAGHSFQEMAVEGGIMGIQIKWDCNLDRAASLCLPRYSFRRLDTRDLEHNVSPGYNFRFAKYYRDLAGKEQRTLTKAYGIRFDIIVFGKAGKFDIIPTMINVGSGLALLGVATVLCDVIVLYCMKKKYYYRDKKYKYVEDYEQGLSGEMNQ
Method: (§1) To express the recombinant channels, we used human embryonic kidney (HEK) 293T cells (American Type Culture Collection, Rockville, MD, USA) grown in Dulbecco modified Eagle’s medium (Thermo Fisher Scientific, Waltham, MA) supplemented with 10% fetal bovine serum (Sigma-Aldrich, St Louis, MO), 50 U/ml penicillin and 50 µg/ml streptomycin (both Thermo Fisher Scientific, Waltham, MA) in a humidified 5% CO2 and 95% air at 37°C. Cells were cultured in 75 cm^2 plastic culture flasks (NUNC, Rochester, NY) for 36–72 hours until reaching 80–95% confluence. Before the day of transfection, the cells were plated on 35 mm culture dishes (Sarstedt, Newton, NC) and incubated at 37°C for at least 24 h. Transfection was done using 2 µg of either WT or mutant receptor DNA with 2 µl of JetPrime reagent in 2 ml of Dulbecco modified Eagle’s medium, according to manufacturer’s instructions (PolyPlus-transfection, Illkirch, France). Transfected cells were identified by the fluorescence signal of EGFP using the Olympus IX71 inverted research microscope with fluorescence illuminators (Model IX71; Olympus, Melville, NY).
(§2) cDNAs encoding the sequences of the rP2X4 and mutated subunits were subcloned into the pIRES2-EGFP vector (Clontech, Mountain View, CA, USA). To generate the mutants, oligonucleotides (synthesized and provided by VBC-Genomics, Vienna, Austria or Sigma Aldrich) containing specific mutagenesis mismatches were introduced into the rP2X4/pIRES2-EGFP template using PfU Ultra DNA polymerase (Thermo Fisher Scientific). A High-Speed Plasmid Mini Kit (Geneaid, Taipei City, Taiwan) was used to isolate the plasmids for transfection. Dye terminator cycle sequencing (ABI PRISM 3100, Applied Biosystems, Foster City, CA) was used to identify and verify the presence of the mutations. The sequencing was performed by the DNA Sequencing Laboratory, Institute of Microbiology, ASCR, Prague.
(§3) ATP-induced currents were recorded from whole cells clamped to −60 mV using an Axopatch 200B patch-clamp amplifier (Axon Instruments, Union City, CA). The recordings were captured and stored using the Digidata 1322A and pClamp9 software package (Axon Instruments). During the experiments, the cell culture was perfused with a bath solution containing: 142 mM NaCl, 3 mM KCl, 2 mM CaCl2, 1 mM MgCl2, 10 mM 4-(2-Hydroxyethyl)piperazine-1-ethanesulfonic acid (HEPES) and 10 mM D-glucose, adjusted to pH 7.3 with 1 M NaOH. The patch electrodes were filled with a solution containing: 154 mM CsCl, 11 mM EGTA and 10 mM HEPES, adjusted to pH 7.2 with 1.6 M CsOH. The whole-cell configuration was used to abolish the influence of natively present metabotropic receptors for ATP and we used intracellular cesium to block any kind of possible background potassium conductance. Potency of ATP was measured based on the activation of naïve (not previously stimulated) receptors using a short (2–5 s) application of various concentrations of ATP. The results are expressed as molar concentration of ATP required to produce 50% of the maximal response (EC50). One or two responses were recorded from one cell, if not otherwise stated, and responses from different cells were pooled. The maximum current amplitude (Imax) was measured in response to application of supramaximal concentrations (100–1000 µM) of ATP. Responsiveness to P2XR agonists 2-MeS-ATP, ATPγS, BzATP, and α,β-meATP, all applied in 100 µM concentration, was expressed as percentage of response in comparison to 100 µM ATP treatment for selected mutants. In all mutants, the whole cell currents were also measured in the presence of 3 µM IVM, which was dissolved in dimethyl sulfoxide, stored in stock solutions at 10 mM, and diluted to required concentrations in bath solution in the day of experiment. The control and drug containing solutions were applied via a rapid (exchange time 30–40 ms) perfusion system (RSC-200, BIOLOGIC, Claix, France). All other chemicals are from Sigma-Aldrich. […]

rP2X4R T211A mutant = molecular target: T2, rP2X4R T211A mutant (Rattus norvegicus, UniProt P51577, T211A)
T2 construct: expressed in transfected cells; host or cells: HEK293T
T2 sequence (P51577 1-388 T211A): T1 sequence (P51577 1-388 S212A) with T211A, A212S
Method: as §1, §2, §3

rP2X4R Y292A mutant = molecular target: T3, rP2X4R Y292A mutant (Rattus norvegicus, UniProt P51577, Y292A)
T3 construct: expressed in transfected cells; host or cells: HEK293T
T3 sequence (P51577 1-388 Y292A): T1 sequence (P51577 1-388 S212A) with A212S, Y292A
Method: as §1, §2, §3

[1] = 100 µM ATP 60 s, biexponential fit
[2] = contribution of τdes2, 100 µM ATP 60 s
[3] = decay after removal of 1 or 3 µM ATP, 3 µM IVM
[4] = naïve receptors, 2–5 s application
[5] = 3 µM IVM 4-6 min vs IVM-untreated

Molecule: 2′(3′-O-(4-Benzoylbenzoyl)adenosine 5′-triphosphate [BzATP]
relative responsiveness (rP2X4R S212A mutant): 47.5±5.2%
relative responsiveness (rP2X4R T211A mutant): 23.4±4.7 %
relative responsiveness (rP2X4R Y292A mutant): 28.9±8.2%

relative responsiveness (rP2X4R S212A mutant): 65.1±19.7%
relative responsiveness (rP2X4R T211A mutant): 79.3±6.7%
relative responsiveness (rP2X4R Y292A mutant): 49.8±8.6%
Molecule: CSc1nc(N)c2ncn([C@@H]3O[C@H](COP(=O)(O)OP(=O)(O)OP(=O)(O)O)[C@@H](O)[C@H]3O)c2n1 [2-MeS-ATP, 2-(Methylthio)adenosine 5′-triphosphate]

Molecule: Nc1ncnc2c1ncn2[C@@H]1O[C@H](COP(=O)(O)OP(=O)(O)OP(=O)(O)O)[C@@H](O)[C@H]1O [ATP]
τdes1 (rP2X4R S212A mutant; [1]): 1.7 ± 0.4 s
τdes2 (rP2X4R S212A mutant; [1]): 11.4 ± 1.5 s
Imax (rP2X4R S212A mutant; 100–1000 µM ATP): 2.1 ± 0.2 nA
Imax+IVM (rP2X4R S212A mutant; ATP after 3 µM IVM 4-6 min): 3.4 ± 0.2 nA
A2 /(A1+A2) (rP2X4R S212A mutant; [2]): 62 ± 5%
τoff +IVM (rP2X4R S212A mutant; [3]): 20 ± 5.0 s
EC50 (rP2X4R S212A mutant; [4]): 4.8 ± 1.2 µM
τdes (rP2X4R S212A mutant; weighted, 100 µM ATP 60 s): 7.8 ± 1.1 s
τdes1 (rP2X4R T211A mutant; [1]): 0.9 ± 0.4 s
τdes2 (rP2X4R T211A mutant; [1]): 8.3 ± 2.4 s
Imax (rP2X4R T211A mutant; 100–1000 µM ATP): 2.3 ± 0.3 nA
Imax+IVM (rP2X4R T211A mutant; ATP after 3 µM IVM 4-6 min): 3.9 ± 0.7 nA
A2 /(A1+A2) (rP2X4R T211A mutant; [2]): 60 ± 8%
τoff +IVM (rP2X4R T211A mutant; [3]): 28 ± 2.5 s
EC50 (rP2X4R T211A mutant; [4]): 2.6 ± 0.6 µM
τdes (rP2X4R T211A mutant; weighted, 100 µM ATP 60 s): 5.0 ± 1.1 s
τdes1 (rP2X4R Y292A mutant; [1]): 1.9 ± 0.2 s
τdes2 (rP2X4R Y292A mutant; [1]): 15.8 ± 0.2 s
Imax (rP2X4R Y292A mutant; 100–1000 µM ATP): 1.9 ± 0.3 nA
Imax+IVM (rP2X4R Y292A mutant; ATP after 3 µM IVM 4-6 min): 4.3 ± 0.3 nA
A2 /(A1+A2) (rP2X4R Y292A mutant; [2]): 57 ± 3%
τoff +IVM (rP2X4R Y292A mutant; [3]): 11 ± 1.2 s
EC50 (rP2X4R Y292A mutant; [4]): 7.2 ± 1.9 µM
τdes (rP2X4R Y292A mutant; weighted, 100 µM ATP 60 s): 10 ± 1.5 s

relative responsiveness (rP2X4R S212A mutant): 61.7±3.9%
relative responsiveness (rP2X4R T211A mutant): 61.8±6.1%
relative responsiveness (rP2X4R Y292A mutant): 42.3±7.0%
Molecule: Nc1ncnc2c1ncn2[C@@H]1O[C@H](CO[P@](=O)(O)O[P@](=O)(O)O[P@@](=O)(O)S)[C@@H](O)[C@H]1O [ATPγS, Adenosine 5′-(γ-thio)triphosphate]

Molecule: CC[C@H](C)[C@H]1O[C@]2(CC[C@@H]1C)C[C@@H]1C[C@@H](C/C=C(\C)[C@@H](O[C@H]3C[C@H](OC)[C@@H](O[C@H]4C[C@H](OC)[C@@H](O)[C@H](C)O4)[C@H](C)O3)[C@@H](C)/C=C/C=C3\CO[C@@H]4[C@H](O)C(C)=C[C@@H](C(=O)O1)[C@]34O)O2 [IVM, ivermectin]
Fold incr. Imax (rP2X4R S212A mutant; [5]): 1.6 ± 0.2 fold
Fold incr. Imax (rP2X4R T211A mutant; [5]): 1.6 ± 0.3 fold
Fold incr. Imax (rP2X4R Y292A mutant; [5]): 2.0 ± 0.3 fold

Molecule: Nc1ncnc2c1ncn2C1OC(COP(=O)(O)CP(=O)(O)OP(=O)(O)O)C(O)C1O (stereo not drawn) [α,β-meATP, α,β-methyleneadenosine 5′-triphosphate]
relative responsiveness (rP2X4R S212A mutant): 19.2±6.2%
relative responsiveness (rP2X4R T211A mutant): 39.1±7.2%
relative responsiveness (rP2X4R Y292A mutant): 16.2±4.4 %

Reference: paper PMC4232510, “Identification of Functionally Important Residues of the Rat P2X4 Receptor by Alanine Scanning Mutagenesis of the Dorsal Fin and Left Flipper Domains” (PLoS ONE, 2014)
